ChEMBL document CHEMBL1201862, “PubChem BioAssay data set” (2004)
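Tested at 5 concentrations; 48 h exposure; 96-well plates; endpoints linearly interpolated, else capped at highest concentration. The concentration for 50% growth inhibition is given as GI50.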 Active and inactive are the calls of the source. Rule as the data show it: active = GI50 up to about 1.1 µM and inactive = higher.

Columns and labels:
Experiment in all cases: DTP human tumour cell line panel, 48 h
SK-OV-3 = test system: SK-OV-3
LXFL 529 = test system: LXFL 529
KM12 = test system: KM12
NCI-H23 = test system: NCI-H23
DMS-114 = test system: DMS-114
LOX IMVI = test system: LOX IMVI
NCI-H226 = test system: NCI-H226
U-251 = test system: U-251
SK-MEL-28 = test system: SK-MEL-28
A498 = test system: A498
MOLT-4 = test system: MOLT-4
OVCAR-8 = test system: OVCAR-8
CAKI-1 = test system: CAKI-1
RXF 631 = test system: RXF 631
HCT-116 = test system: HCT-116
DMS-273 = test system: DMS-273

Measured: GI50

COc1ccccc1NC(=O)C(=O)C(C(=O)c1ccccc1F)C1OC(=O)c2ccccc21 (stereo unspecified)
inactive: SK-OV-3 35.6 µM | LXFL 529 24.9 µM | KM12 30.1 µM | NCI-H23 20 µM | DMS-114 23.1 µM | LOX IMVI 20.8 µM | NCI-H226 15.6 µM | U-251 14.3 µM | SK-MEL-28 46.3 µM | A498 59.8 µM | MOLT-4 15.5 µM | OVCAR-8 19.9 µM | CAKI-1 34.5 µM | RXF 631 18.7 µM | HCT-116 22 µM | DMS-273 23.9 µM
